Assay: Solubility of 1-aminocyclopropanecarboxylic acid in solvents
Type: physicochemical

## NC1(C(=O)O)CC1 [1-aminocyclopropanecarboxylic acid]
Solvent methanol
  solubility in methanol: about 1.0 % (wt/wt)
solvent: organic acid having one to five carbon atoms (e.g. acetic acid)
  solubility in organic acid having one to five carbon atoms: highly soluble
